# Assay results from patent US20110044969A1, “Antimicrobial Agents for the Treatment of Campylobacter Species in the Crop of a Bird” (NOFIMA MAT AS, priority 2008, published 2011).
# System: C. jejuni strain 484, strain 523 and strain 534
# Conditions: pH 6.0 and 6.5; acid 0.1, 0.01, 0.001, 0.0001%; 48 hours at 42° C. microaerophilic; growth by spectrophotometer; all three strains
# Experimental: Three C. jejuni strains were compared in vitro for sensitivity for benzoic acid and sorbic acid at two different pH values. These strains were C. jejuni strain 484 (from poultry leg), C. jejuni strain 523 (from poultry faeces), and C. jejuni strain 534 (from poultry faeces). Different combinations of pH (6.0 and 6.5) and concentrations of the acids (0.1, 0.01, 0.001, and 0.0001%) were tested in Mueller-Hinton broth (MH) with supplement for Campylobacter (SR232E; Oxoid Ltd., Basingstoke, UK). The strains were incubated in microaerophilic atmosphere for 48 hours at 42° C., and growth was measured by spectrophotometer.
# Three C. jejuni strains were tested for in vitro growth at different combinations of pH (6.0 and 6.5) and concentrations of sorbic- and benzoic acid (0.1, 0.01, 0.001, and 0.0001%).
smiles,measurement,value
C/C=C/C=C/C(=O)O [sorbic acid],in vitro growth reduction of C. jejuni,highest growth reduction
